Reference: ChEMBL document CHEMBL3400015, “Tertiary amides of Salinomycin: A new group of antibacterial agents against Bacillus anthracis and methicillin-resistant Staphylococcus epidermidis” (Bioorg Med Chem Lett, 2015)
Values after ≈ are worked out from the molar mass of the structure shown.

Assays:
Type in all cases: functional
[1] = test system: Staphylococcus epidermidis; test: Antimicrobial activity against methicillin-resistant Staphylococcus epidermidis isolate 459/11 after 18 hrs by twofold serial broth dilution method; details: isolate 459/11, 18 h
Pseudomonas aeruginosa [2] = test: Antimicrobial activity against Pseudomonas aeruginosa ATCC 27853 after 18 hrs by twofold serial broth dilution method; details: ATCC 27853, 18 h
Staphylococcus aureus [3] = test: Bactericidal activity against Staphylococcus aureus […] after 24 hrs; details: read-out: MBC99.9
[4] = test system: Staphylococcus epidermidis; test: Antimicrobial activity against methicillin-resistant Staphylococcus epidermidis isolate 469/11 after 18 hrs by twofold serial broth dilution method; details: isolate 469/11, 18 h
[5] = test system: Staphylococcus epidermidis; test: Antimicrobial activity against methicillin-resistant Staphylococcus epidermidis isolate 407/10 after 18 hrs by twofold serial broth dilution method; details: isolate 407/10, 18 h
[6] = test system: Staphylococcus epidermidis; test: Bactericidal activity against methicillin-resistant Staphylococcus epidermidis isolate 454/11 after 24 hrs; details: isolate 454/11, 24 h, read-out: MBC99.9
[7] = test system: Staphylococcus epidermidis; test: Bactericidal activity against methicillin-resistant Staphylococcus epidermidis isolate 458/11 after 24 hrs; details: isolate 458/11, 24 h, read-out: MBC99.9
[8] = test system: Staphylococcus epidermidis; test: Bactericidal activity against methicillin-resistant Staphylococcus epidermidis isolate 407/10 after 24 hrs; details: isolate 407/10, 24 h, read-out: MBC99.9
[9] = test system: Staphylococcus epidermidis; test: Bactericidal activity against methicillin-resistant Staphylococcus epidermidis isolate 470/11 after 24 hrs; details: isolate 470/11, 24 h, read-out: MBC99.9
Escherichia coli [10] = test: Antimicrobial activity against Escherichia coli ATCC 25922 after 18 hrs by twofold serial broth dilution method; details: ATCC 25922, 18 h
[11] = test system: Staphylococcus epidermidis; test: Antimicrobial activity against methicillin-resistant Staphylococcus epidermidis isolate 424/10 after 18 hrs by twofold serial broth dilution method; details: isolate 424/10, 18 h
[12] = test system: Staphylococcus epidermidis; test: Antimicrobial activity against Staphylococcus epidermidis ATCC 35984 after 18 hrs by twofold serial broth dilution method; details: ATCC 35984, 18 h
[13] = test system: Staphylococcus epidermidis; test: Bactericidal activity against methicillin-resistant Staphylococcus epidermidis isolate 409/10 after 24 hrs; details: isolate 409/10, 24 h, read-out: MBC99.9
[14] = test system: Staphylococcus epidermidis; test: Antimicrobial activity against methicillin-resistant Staphylococcus epidermidis isolate 457/11 after 18 hrs by twofold serial broth dilution method; details: isolate 457/11, 18 h
[15] = test system: Staphylococcus epidermidis; test: Antimicrobial activity against methicillin-resistant Staphylococcus epidermidis isolate 454/11 after 18 hrs by twofold serial broth dilution method; details: isolate 454/11, 18 h
Escherichia coli [16] = test: Bactericidal activity against Escherichia coli ATCC 10538 after 24 hrs; details: ATCC 10538, 24 h, read-out: MBC99.9
[17] = test system: Staphylococcus epidermidis; test: Bactericidal activity against methicillin-resistant Staphylococcus epidermidis isolate 403/10 after 24 hrs; details: isolate 403/10, 24 h, read-out: MBC99.9
Pseudomonas aeruginosa [18] = test: Bactericidal activity against Pseudomonas aeruginosa ATCC 15442 after 24 hrs; details: ATCC 15442, 24 h, read-out: MBC99.9
Pseudomonas aeruginosa [19] = test: Antimicrobial activity against Pseudomonas aeruginosa NCTC 6749 after 18 hrs by twofold serial broth dilution method; details: NCTC 6749, 18 h
[20] = test system: Staphylococcus epidermidis; test: Bactericidal activity against methicillin-resistant Staphylococcus epidermidis isolate 459/11 after 24 hrs; details: isolate 459/11, 24 h, read-out: MBC99.9
Pseudomonas aeruginosa [21] = test: Bactericidal activity against Pseudomonas aeruginosa NCTC 6749 after 24 hrs; details: NCTC 6749, 24 h, read-out: MBC99.9
[22] = test system: Staphylococcus epidermidis; test: Bactericidal activity against methicillin-resistant Staphylococcus epidermidis isolate 424/10 after 24 hrs; details: isolate 424/10, 24 h, read-out: MBC99.9
Staphylococcus aureus [23] = test: Antimicrobial activity against Staphylococcus aureus ATCC 25923 after 18 hrs by twofold serial broth dilution method; details: ATCC 25923, 18 h
[24] = test system: Staphylococcus epidermidis; test: Antimicrobial activity against methicillin-resistant Staphylococcus epidermidis isolate 460/11 after 18 hrs by twofold serial broth dilution method; details: isolate 460/11, 18 h
Escherichia coli [25] = test: Antimicrobial activity against Escherichia coli NCTC 8196 after 18 hrs by twofold serial broth dilution method; details: NCTC 8196, 18 h
Staphylococcus aureus [26] = test: Antimicrobial activity against Staphylococcus aureus […] after 18 hrs by twofold serial broth dilution method
[27] = test system: Staphylococcus epidermidis; test: Antimicrobial activity against methicillin-resistant Staphylococcus epidermidis isolate 422/10 after 18 hrs by twofold serial broth dilution method; details: isolate 422/10, 18 h
Staphylococcus aureus [28] = test: Bactericidal activity against Staphylococcus aureus ATCC 6538 after 24 hrs; details: ATCC 6538, 24 h, read-out: MBC99.9
Staphylococcus aureus [29] = test: Bactericidal activity against Staphylococcus aureus NCTC 4163 after 24 hrs; details: NCTC 4163, 24 h, read-out: MBC99.9
[30] = test system: Staphylococcus epidermidis; test: Bactericidal activity against methicillin-resistant Staphylococcus epidermidis isolate 455/11 after 24 hrs; details: isolate 455/11, 24 h, read-out: MBC99.9
Bacillus anthracis = test: Antimicrobial activity against Bacillus anthracis 34F2 after 18 hrs by twofold serial broth dilution method; details: 34F2, 18 h
[31] = test system: Staphylococcus epidermidis; test: Antimicrobial activity against methicillin-resistant Staphylococcus epidermidis isolate 409/10 after 18 hrs by twofold serial broth dilution method; details: isolate 409/10, 18 h
Escherichia coli [32] = test: Antimicrobial activity against Escherichia coli ATCC 10538 after 18 hrs by twofold serial broth dilution method; details: ATCC 10538, 18 h
Staphylococcus aureus [33] = test: Antimicrobial activity against Staphylococcus aureus NCTC 4163 after 18 hrs by twofold serial broth dilution method; details: NCTC 4163, 18 h
Pseudomonas aeruginosa [34] = test: Bactericidal activity against Pseudomonas aeruginosa ATCC 27853 after 24 hrs; details: ATCC 27853, 24 h, read-out: MBC99.9
[35] = test system: Staphylococcus epidermidis; test: Antimicrobial activity against methicillin-resistant Staphylococcus epidermidis isolate 458/11 after 18 hrs by twofold serial broth dilution method; details: isolate 458/11, 18 h
[36] = test system: Staphylococcus epidermidis; test: Antimicrobial activity against methicillin-resistant Staphylococcus epidermidis isolate 455/11 after 18 hrs by twofold serial broth dilution method; details: isolate 455/11, 18 h
[37] = test system: Staphylococcus epidermidis; test: Bactericidal activity against methicillin-resistant Staphylococcus epidermidis isolate 457/11 after 24 hrs; details: isolate 457/11, 24 h, read-out: MBC99.9
Staphylococcus aureus [38] = test: Bactericidal activity against Staphylococcus aureus ATCC 25923 after 24 hrs; details: ATCC 25923, 24 h, read-out: MBC99.9
[39] = test system: Staphylococcus epidermidis; test: Bactericidal activity against Staphylococcus epidermidis ATCC 35984 after 24 hrs; details: ATCC 35984, 24 h, read-out: MBC99.9
[40] = test system: Staphylococcus epidermidis; test: Bactericidal activity against methicillin-resistant Staphylococcus epidermidis isolate 460/11 after 24 hrs; details: isolate 460/11, 24 h, read-out: MBC99.9

With `CCCCCCCCN(CCCCCCCC)C(=O)[C@H](CC)[C@H]1CC[C@H](C)[C@H]([C@@H](C)[C@H](O)[C@H](C)C(=O)[C@H](CC)[C@H]2O[C@]3(C=C[C@@H](O)[C@]4(CC[C@@](C)([C@H]5CC[C@](O)(CC)[C@H](C)O5)O4)O3)[C@H](C)C[C@@H]2C)O1` the MIC [1] was 256 µg/mL (≈ 263 µM), the MIC (Pseudomonas aeruginosa [2]) was greater than 256 µg/mL and the MBC (Staphylococcus aureus [3]) was greater than 256 µg/mL. The MIC [4] was 256 µg/mL (≈ 263 µM), the MIC [5] was 256 µg/mL (≈ 263 µM) and the MBC [6] was greater than 256 µg/mL. It also gave an MBC [7] greater than 256 µg/mL, an MBC [8] greater than 256 µg/mL and an MBC [9] greater than 256 µg/mL. For the same molecule, the MIC (Escherichia coli [10]) was greater than 256 µg/mL, the MIC [11] was greater than 256 µg/mL and the MIC [12] was 128 µg/mL (≈ 131 µM). The MBC [13] was greater than 256 µg/mL, the MIC [14] was 256 µg/mL (≈ 263 µM) and the MIC [15] was greater than 256 µg/mL. The MBC (Escherichia coli [16]) was greater than 256 µg/mL, the MBC [17] was greater than 256 µg/mL and the MBC (Pseudomonas aeruginosa [18]) was greater than 256 µg/mL. For the same molecule, the MIC (Pseudomonas aeruginosa [19]) was greater than 256 µg/mL, the MBC [20] was greater than 256 µg/mL and the MBC (Pseudomonas aeruginosa [21]) was greater than 256 µg/mL. The MBC [22] was greater than 256 µg/mL, the MIC (Staphylococcus aureus [23]) was 128 µg/mL (≈ 131 µM) and the MIC [24] was 256 µg/mL (≈ 263 µM). The MIC (Escherichia coli [25]) was greater than 256 µg/mL, the MIC (Staphylococcus aureus [26]) was 256 µg/mL (≈ 263 µM) and the MIC [27] was 256 µg/mL (≈ 263 µM). For the same molecule, the MBC (Staphylococcus aureus [28]) was greater than 256 µg/mL, the MBC (Staphylococcus aureus [29]) was greater than 256 µg/mL and the MBC [30] was greater than 256 µg/mL. The MIC (Bacillus anthracis) was 64 µg/mL (≈ 65.7 µM), the MIC [31] was greater than 256 µg/mL and the MIC (Escherichia coli [32]) was greater than 256 µg/mL. The MIC (Staphylococcus aureus [33]) was 256 µg/mL (≈ 263 µM), the MBC (Pseudomonas aeruginosa [34]) was greater than 256 µg/mL and the MIC [35] was 256 µg/mL (≈ 263 µM). For the same molecule, the MIC [36] was greater than 256 µg/mL, the MBC [37] was greater than 256 µg/mL and the MBC (Staphylococcus aureus [38]) was greater than 256 µg/mL. It also gave an MBC [39] greater than 256 µg/mL and an MBC [40] greater than 256 µg/mL.
